Assay results as given in patent US20100105746A1, “METHOD FOR TREATING METABOLIC DISEASES” (priority 2008, published 2010).
Several values for one entry are separate records, joined by “and”; a condition that tells them apart may be missing. Identical values can stand only once.

Key:
[1] = Oral glucose tolerance test (OGTT) in rats with diet-induced obesity (Example 5); assay type: in vivo, rat; settings: for Glucose concentration excursion (baseline to maximum) / Glucose concentration maximum: OGTT day 21, DIO rats; for Time to maximum (glucose concentration): OGTT day 21, dextrose 2 g/kg
Description: As part of the study described in Example 4, an oral glucose tolerance test (OGTT) was performed on day 21 of the dosing period, after a 2-4 hour fast. Dextrose (2 g/kg) was administered by oral gavage. Blood for glucose analysis was collected at 0, 15, 30, 60, 120 and 180 minutes after dextrose administration. At each time point, 0.25 ml whole blood was collected in EDTA, processed to plasma, and analyzed for blood glucose with a low-volume glucose kit.

[2] = Terminal fasting serum glucose and lipids in rats with diet-induced obesity (Example 6); assay type: in vivo, rat; settings: DIO rats, vs vehicle control
Description: As part of the study described in Example 4, a terminal blood sample (0.5 ml whole blood in EDTA) was collected on day 24, after a 12-18 hour fast. Whole blood was processed to serum, and analyzed for glucose, total cholesterol, HDL cholesterol, free fatty acids and total triglycerides.

[3] = Plasma lipids, lipoproteins and liver weight in normal rats versus fibrates (Example 8); assay type: in vivo, rat; settings: once daily p.o. 7 days, approximation
Text: The study design was based on the protocols used in Examples 1-3. Male Sprague-Dawley rats were provided normal chow ad libitum, both before and during the study period. […] Six rats were assigned to each treatment group (8 to the vehicle control). The study terminated on the day following administration of the seventh dose (day 8), with terminal blood collected for plasma lipid and lipoprotein analyses including LC-MS-based determination of lipid profiles, total and free cholesterol analyses, and lipoprotein cholesterol determinations (VLDL, LDL and HDL).
In order to elucidate the impact of romazarit on plasma lipoproteins, an ultraviolet (UV) size exclusion chromatography (SEC) system was used to separate plasma into broad lipoprotein-containing fractions that were based on relative retention times of human VLDL (very low density lipoprotein), LDL (low density lipoprotein), and HDL (high density lipoprotein) standards. These fractions were collected for cholesterol assays and the UV chromatograms were integrated to provide relative quantitation of the three lipoprotein types. It is important to note that since the UV absorbance measurement is not specific for lipoproteins and may also derive from other plasma constituents that co-elute with a particular lipoprotein, the relative quantitation data reported here is an approximation. The HDL fraction in particular may have included such co-eluting species, as evidenced by the relatively high integrated area values for this fraction.

[4] = Body weight, food consumption and liver weight in diet-induced obese (DIO) rat model (Example 4); assay type: in vivo
Description: Male Sprague-Dawley rats were acclimated for 7 weeks on a high-fat diet before commencement of dose administration, and maintained on the same diet throughout the subsequent dosing period of 23 days. The high-fat diet (D12492 commercially available from Research Diets, Inc., New Brunswick, N.J.) was one in which at least 60% of calories are derived from fat.
Dose levels of gemfibrozil (50 mg/kg) and sibutramine (10 mg/kg) were selected based on published reports. All treatments were administered once daily by oral gavage in 10 ml vehicle. A vehicle-only control was also administered. Each treatment group consisted of 10 animals.
Body weight of each animal was measured weekly during the 7-week acclimation period and five times weekly during the 23-day dosing period. Food consumption was recorded twice weekly during the 7-week acclimation period and five times weekly during the 23-day dosing period.
Animals were sacrificed and liver weights measured at conclusion of the study.

[5] = DIO rats, 10 mg/kg once daily p.o.

## Cc1ccc(C)c(OCCCC(C)(C)C(=O)O)c1 [gemfibrozil]
[1]; 50 mg/kg
  Glucose concentration excursion (baseline to maximum): 110.0 mg/dL and 111.0 mg/dL
  Glucose concentration maximum: 264.9 mg/dL
[1]; DIO rats, 50 mg/kg
  Time to maximum (glucose concentration): 30 min
[2]; day 24, 50 mg/kg once daily
  terminal (total) cholesterol levels: significantly increased
  terminal HDL levels: significantly increased
  terminal fasting levels of triglycerides: significant reduction
  terminal fasting serum glucose: did not result in a significant decrease
  terminal levels of free fatty acids: significant increase
[3]
  VLDL (UV size exclusion chromatography, relative quantitation): similarly significant effect
[4]; DIO rats, 50 mg/kg once daily p.o., dosing period
  food consumption: No significant effect
[4]; DIO rats, 50 mg/kg once daily p.o., throughout the dosing period
  body weight: no significant effect
[4]; rat, in vivo, po, 50 mg/kg
  liver weight: Increased liver weight

## CC(C)CC(N(C)C)C1(c2ccc(Cl)cc2)CCC1 (stereo not shown) [sibutramine]
[1]; OGTT day 21, 0 minutes, DIO rats, 10 mg/kg
  Glucose concentration baseline: 126.9 mg/dL
[1]; 10 mg/kg
  Glucose concentration excursion (baseline to maximum): 74.4 mg/dL
  Glucose concentration maximum: 201.3 mg/dL
[1]; DIO rats, 10 mg/kg
  Time to maximum (glucose concentration): 30 min
[2]; day 24, 10 mg/kg once daily
  terminal (total) cholesterol levels: no effect
  terminal HDL levels: no significant effect
  terminal fasting levels of triglycerides: significant reduction
  terminal fasting serum glucose: significant decrease
  terminal levels of free fatty acids: no effect
[4]; [5]
  day by which food consumption returned to levels comparable to the vehicle control: ≤ 8 days
  time of minimum food consumption: ≤ 2 days
[4]; DIO rats, 10 mg/kg once daily p.o., 23 days
  body weight: significant weight loss
[4]; DIO rats, 10 mg/kg once daily p.o., conclusion of the study
  liver weight: No increase in liver weight
